Reference: patent US20160090383A1, “ANTIBACTERIAL PHTHALIDE DERIVATIVES” (priority 2013, published 2016)

How the values were obtained:
Assay in all cases: Bacterial growth minimal inhibitory concentration (microdilution, CLSI M7-A7)
Type in all cases: cell-based
[1] = system: Enterococcus faecium A949; settings: multiply-resistant strain (quinolone-resistant and vancomycin-resistant); cation-adjusted Mueller-Hinton Broth
Experimental: (§1) Minimal Inhibitory Concentrations (MICs; […]) were determined in cation-adjusted Mueller-Hinton Broth by a microdilution method following the description given in “Methods for Dilution Antimicrobial Susceptibility Tests for Bacteria that Grow Aerobically”, Approved standard, 7th ed., Clinical and Laboratory Standards Institute (CLSI) Document M7-A7, Wayne, Pa., USA, 2006.

[2] = system: Moraxella catarrhalis A894; settings: quinolone-sensitive strain; cation-adjusted Mueller-Hinton Broth
Experimental: as §1

[3] = system: Staphylococcus aureus A798; settings: multiply-resistant strain (quinolone-resistant and methicillin-resistant); cation-adjusted Mueller-Hinton Broth
Experimental: as §1

[4] = system: Staphylococcus aureus ATCC29213; settings: methicillin-sensitive and quinolone-sensitive strain; cation-adjusted Mueller-Hinton Broth
Experimental: as §1

[5] = system: Streptococcus pneumonia ATTC49619; settings: quinolone-sensitive strain; cation-adjusted Mueller-Hinton Broth
Experimental: as §1

| Substance | MIC for E. faecium A949 [1] [µg/mL] | MIC for M. catarrhalis A894 [2] [µg/mL] | MIC for S. aureus A798 [3] | MIC for S. aureus ATCC29213 [4] | MIC for S. pneumonia ATTC49619 [5] [µg/mL] |
| --- | --- | --- | --- | --- | --- |
| (S)-3-Oxo-5-phenyl-1,3-dihydro-isobenzofuran-1-carboxylic acid [2-((R)-9-fluoro-4-oxo-1,2-dihydro-4H-pyrrolo[3,2,1-ij]quinolin-1-ylamino)-ethyl]-amide and (S)-3-Oxo-5-phenyl-1,3-dihydro-isobenzofuran-1-carboxylic acid [2-((R)-9-fluoro-4-oxo-1,2-dihydro-4H-pyrrolo[3,2,1-ij]quinolin-1-ylamino)-ethyl]-amide [Example 14] | 0.5 | 4 | 0.125 µg/mL | 0.125 µg/mL | 2 |
| (S)-9-Fluoro-1-[3-((R)-3-oxo-5-phenyl-1,3-dihydro-isobenzofuran-1-yl)-propylamino]-1,2-dihydro-pyrrolo[3,2,1-ij]quinolin-4-one and (S)-9-Fluoro-1-[3-((S)-3-oxo-5-phenyl-1,3-dihydro-isobenzofuran-1-yl)-propylamino]-1,2-dihydro-pyrrolo[3,2,1-ij]quinolin-4-one [Example 7] | 0.125 | 2 | 0.125 µg/mL | 0.031 µg/mL | 0.125 |
| N—((R)-9-Fluoro-4-oxo-1,2-dihydro-4H-pyrrolo[3,2,1-ij]quinolin-1-ylmethyl)-2-((R)-3-oxo-5-phenyl-1,3-dihydro-isobenzofuran-1-yl)-acetamide and N—((R)-9-Fluoro-4-oxo-1,2-dihydro-4H-pyrrolo[3,2,1-ij]quinolin-1-ylmethyl)-2-((S)-3-oxo-5-phenyl-1,3-dihydro-isobenzofuran-1-yl)-acetamide [Example 1] | 0.125 | 0.25 | ≦0.016 mg/L | ≦0.016 mg/L | 0.125 |
| rac-5-(2,5-Difluoro-phenyl)-3-oxo-1,3-dihydro-isobenzofuran-1-carboxylic acid [3-(7-fluoro-2-oxo-2H-quinolin-1-yl)-propyl]-amide [Example 20] | 1 | 0.25 | 0.063 µg/mL | 0.063 µg/mL | 2 |
